Assay results reported in PMC7318646 (Chemmedchem, 2020).

Key:
[1] = target: T1, HSA (Homo sapiens, UniProt P02768); assay: Three-dye; assay type: binding; settings: three dyes 8 μM each on HSA 25 μM
[2] = target: T1, HSA; assay: switchSENSE molecular dynamics mode; settings: compound concentration tenfold higher than KD

T1 sequence (P02768 25-609): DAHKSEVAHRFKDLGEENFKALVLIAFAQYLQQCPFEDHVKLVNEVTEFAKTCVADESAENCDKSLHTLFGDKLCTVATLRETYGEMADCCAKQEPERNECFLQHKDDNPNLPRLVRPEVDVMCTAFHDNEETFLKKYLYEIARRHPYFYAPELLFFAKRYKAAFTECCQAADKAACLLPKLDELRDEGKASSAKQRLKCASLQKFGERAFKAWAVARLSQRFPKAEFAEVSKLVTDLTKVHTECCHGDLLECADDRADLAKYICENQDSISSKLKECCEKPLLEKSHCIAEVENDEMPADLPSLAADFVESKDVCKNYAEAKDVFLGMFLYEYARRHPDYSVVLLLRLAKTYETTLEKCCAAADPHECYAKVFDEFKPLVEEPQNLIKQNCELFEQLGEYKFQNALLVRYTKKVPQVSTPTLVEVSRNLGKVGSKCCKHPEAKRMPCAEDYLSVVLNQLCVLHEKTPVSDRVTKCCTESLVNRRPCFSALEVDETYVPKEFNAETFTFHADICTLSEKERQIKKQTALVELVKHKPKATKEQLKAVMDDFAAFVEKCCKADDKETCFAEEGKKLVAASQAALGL

| displacement of NBD-FA (fatty acid binding site probe) [1] | displacement of dimethylamino-BODIPY 5 a (Sudlow-site II probe) [1] | displacement of warfarin derivative 8 a (Sudlow-site I probe) [1] | conformational change of HSA upon binding (molecular dynamics mode) [2] | Molecule |
| --- | --- | --- | --- | --- |
| same behavior | same behavior | same behavior |  | O=C(O)CCNC(=O)c1ccc(/N=N/c2ccc(O)c(C(=O)O)c2)cc1 [balsalazide] |
|  |  |  | significant expansion | (7‐nitrobenz‐2‐oxa‐1,3‐diazol‐4‐yl)‐C12 fatty acid [NBD‐FA] |
|  | competitive | competitive |  | CCC(Cc1c(I)cc(I)c(O)c1I)C(=O)O (stereo not drawn) [Iophenoxic acid, iophenoxic acid] |
